These results are taken from patent publication US20230087118A1, “IMIDAZO[1,2-a][sequence] DERIVATIVES AND THEIR USE IN THE TREATMENT OF DISEASE” (priority 2019, published 2023).

Structures are written as SMILES. Counter-ions that a name gives are not always drawn.

The target of one test is T1, IRAK4 (Homo sapiens, UniProt Q9NWZ3).
T1 sequence (Q9NWZ3 1-460): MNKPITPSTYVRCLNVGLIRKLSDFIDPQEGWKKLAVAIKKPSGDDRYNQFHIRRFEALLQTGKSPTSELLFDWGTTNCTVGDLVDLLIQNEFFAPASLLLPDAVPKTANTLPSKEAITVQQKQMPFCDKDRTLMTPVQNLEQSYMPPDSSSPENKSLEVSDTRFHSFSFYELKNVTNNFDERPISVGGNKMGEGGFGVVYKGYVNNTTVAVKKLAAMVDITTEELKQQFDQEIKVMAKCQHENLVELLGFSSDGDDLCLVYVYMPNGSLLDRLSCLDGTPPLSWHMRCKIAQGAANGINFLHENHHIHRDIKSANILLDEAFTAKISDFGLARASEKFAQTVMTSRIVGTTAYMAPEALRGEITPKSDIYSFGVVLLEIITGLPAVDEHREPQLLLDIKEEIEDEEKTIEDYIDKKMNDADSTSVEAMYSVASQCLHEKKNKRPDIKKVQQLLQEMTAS
The test can be described thus: biochemical.
Conditions: not given
`CC(C)Oc1cc2nc([C@]34CC[C@H](C3)OC4)cn2cc1C(=O)Nc1cccc(C(F)F)n1` (single isomer, unassigned) [Example 591]: the IC50 (as a rule, the concentration needed to halve the response being measured) came to 0.0001 µM.
Regarding `CCOc1nc(C(=O)Nc2cccnc2OC)cn2cc(C34COC(C)(C3)C4)nc12` [Example 225], it took 0.0052 µM to reach half-maximal inhibition (IC50).
Same read-out and setting: for `COC12CC(c3cn4cc(C(=O)Nc5cccc(C(F)F)n5)c(OC(C)C)cc4n3)(C1)C2` [Example 227] the value was 0.0003 µM; for `COCc1cc2nc(C34COC(C)(C3)C4)cn2cc1C(=O)Nc1cnn2cc(C)cnc12` [Example 288, 7-(Methoxymethyl)-2-(1-methyl-2-oxabicyclo[2.1.1]hexan-4-yl)-N-(6-methylpyrazolo[1,5-a]pyrimidin-3-yl)imidazo[1,2-a]pyridine-6-carboxamide], 1.23 µM; for `COc1cc2nc(C3CCOCC3)cn2cc1C(=O)Nc1cscc1Cl` [Example 111], 0.0198 µM.
`CC12CC(c3cn4cc(C(=O)Nc5ccn(CC(F)F)n5)c(OC5CCC5)cc4n3)(CO1)C2` [Example 530, 7-Cyclobutoxy-N-(1-(2,2-difluoroethyl)-1H-pyrazol-3-yl)-2-(1-methyl-2-oxabicyclo[2.1.1]hexan-4-yl)imidazo[1,2-a]pyridine-6-carboxamide]: the IC50 turned out to be 0.0056 µM.
On to `CC12CCC(c3cn4cc(C(=O)Nc5cccn(C(F)F)c5=O)c(OC5CC5)cc4n3)(CO1)C2` (stereo not drawn) [Example 553], for which the midpoint of inhibition, the IC50, lay at 0.0015 µM.
`COc1cccn2ncc(NC(=O)c3cn4cc(C56COC(C)(C5)C6)nc4c(OC(C)C)n3)c12` [Example 401, 8-Isopropoxy-N-(4-methoxypyrazolo[1,5-a]pyridin-3-yl)-2-(1-methyl-2-oxabicyclo[2.1.1]hexan-4-yl)imidazo[1,2-a]pyrazine-6-carboxamide] displayed an IC50 of 0.0002 µM.
The same measure, in the same setting: as for `CC(C)Oc1cc2nc(C34CCC(C)(C3)OC4)cn2cc1C(=O)Nc1ccccn1` (stereo not drawn) [Example 518, 7-Isopropoxy-2-(1-methyl-2-oxabicyclo[2.2.1]heptan-4-yl)-N-(pyridin-2-yl)imidazo[1,2-a]pyridine-6-carboxamide], the figure is 0.004 µM; as for `COc1cc2nc(C34COC(C)(C3)C4)cn2cc1C(=O)Nc1ccccn1` [Example 1, 7-Methoxy-2-(1-methyl-2-oxabicyclo[2.1.1]hexan-4-yl)-N-(2-pyridyl)imidazo[1,2-a]pyridine-6-carboxamide], 0.0298 µM.
Same read-out and setting: for `COc1ncccc1NC(=O)c1cn2cc(C3CC3)nc2cc1OC1CCC1` [Example 462, 7-Cyclobutoxy-2-cyclopropyl-N-(2-methoxypyridin-3-yl)imidazo[1,2-a]pyridine-6-carboxamide] the value was 0.0032 µM; for `COc1nc(C(=O)Nc2cccc(C(F)F)n2)cn2cc(C34COC(C)(C3)C4)nc12` [Example 231, N-(6-(difluoromethyl)pyridin-2-yl)-8-methoxy-2-(1-methyl-2-oxabicyclo[2.1.1]hexan-4-yl)imidazo[1,2-a]pyrazine-6-carboxamide], 0.0071 µM.

Staying with this test, now noted: IRAK4 Biochemical Assay (1 mM ATP, 2 h) IC50 (μM), 1 mM ATP, 2 h, 100 pM IRAK4.
`CN1CCC(Oc2cc3nc(C4CC4)cn3cc2C(=O)Nc2cccc(C(F)F)n2)C1=O` (stereo not drawn) [Example 469, 2-Cyclopropyl-N-(6-(difluoromethyl)pyridin-2-yl)-7-((1-methyl-2-oxopyrrolidin-3-yl)oxy)imidazo[1,2-a]pyridine-6-carboxamide] registered an IC50 of 0.0412 µM.
In turn, `CC(C)Oc1cc2nc(C34COC(C)(C3)C4)cn2cc1C(=O)Nc1cc2ccccn2n1` [Example 298, 7-Isopropoxy-2-(1-methyl-2-oxabicyclo[2.1.1]hexan-4-yl)-N-(pyrazolo[1,5-a]pyridin-2-yl)imidazo[1,2-a]pyridine-6-carboxamide trifluoroacetate] yielded an IC50 of 0.063 µM.
The same measure, in the same setting: for `CC12CC(c3cn4cc(C(=O)Nc5cccn(C(F)F)c5=O)c(OC5CC(C(F)F)C5)cc4n3)(CO1)C2` (stereo not drawn) [Example 450, N-(1-(difluoromethyl)-2-oxo-1,2-dihydropyridin-3-yl)-7-(3-(difluoromethyl)cyclobutoxy)-2-(1-methyl-2-oxabicyclo[2.1.1]hexan-4-yl)imidazo[1,2-a]pyridine-6-carboxamide] the value was 0.0003 µM.
